Laboratory results taken from patent US7153822B2, “Compositions and methods for modulating connexin hemichannels” (Wyeth, priority 2002, dated 2006).
Square brackets hold non-standard residues; d marks the D form. Peptide text beside a SMILES is read from it. dHyp = O=C(O)[C@H]1C[C@H](O)CN1

Assays:
[1] = system: neonatal rat ventricular cardiomyocytes; conditions: cited from earlier work
[2] = system: cultured primary cardiomyocytes; assay: stimulus-activation interval (conduction velocity) during glucose removal, patch clamp; type: cell-based, rat; conditions: 10 nM, superfusion 20 min after 15 min without glucose
Protocol: 1. Cell culture: In short the hearts from 20 neonate rats (age 1–2 days) are excised aseptically. The ventricles are isolated and cut into 4–6 pieces, which are digested in several steps in a Hanks buffered saline with trypsin and DNAse. The cells are then centrifuged and resuspended in MEM with 5% FCS. To eliminate non-muscle cells the suspension is preplated in petri dishes for 30 minutes at 37° C. The cells in suspension are then seeded onto collagen coated coverslips. Seeding density will be adjusted to give confluent cultures.
2. Electrophysiology: The cover slips with confluent cardiomyocytes are mounted in an open chamber on the stage of an inverted microscope and superfused with Dulbeccos phosphate buffered saline (PBS) by gravity driven flow at 1 ml/min, 37° C. The solution (PBS) contain (in mM): Na+ 152, K+ 4.2, Cl− 141.5, PO43− 9.5, Ca2+ 0.9, Mg2+ 0.5, pH 7.4. Patch clamp pipettes are pulled from 1.5 mm glass capillaries (GC150F-15, Harvard Apparatus) on a Sutter Flaming-Brown P-87 microelectrode puller and fire polished to a resistance of 4–6 MW. […]
The cells were perfused with control solution with 0.1 g/l BSA until a stable baseline in the stimulus-activation interval (SAI) was established. […] Date are expressed as percent change relative to baseline prior to removal of glucose from the media.

## CC(=O)N[C@H](Cc1ccc(O)cc1)C(=O)N1CCC[C@@H]1C(=O)N1C[C@@H](O)C[C@@H]1C(=O)NCC(=O)N[C@H](C)C(=O)NCC(N)=O [Compound 1, Ac-D-Tyr-D-Pro-D-4Hyp-Gly-D-Ala-Gly-NH2] (Ac-[dY][dP][dHyp]G[dA]G-NH2)
[1]; during oxygen and glucose deprivation (untreated app. 50%)
  noradrenalin-induced PI turnover, level relative to normal: ~90 % of the normal level
[1]; normal atmospheric and nutritional conditions
  noradrenalin-induced level of PI turnover: does not alter
[2]
  stimulus-activation interval: decreased the stimulus-activation interval
